Results: patent US7858738B2, “Synthetic human peptides and pharmaceutical compositions comprising them for the treatment of systemic lupus erythematosus” (Yeda Research and Development Co., Ltd., priority 2001, dated 2010)

Key:
MMP-3 = MMP-3 levels in sera of (NZB×NZW)F1 mice (Western blot); type: in vivo; conditions: 300 μg s.c. once a week from age 7 months; sera after 5 injections; FIG. 23
Protocol: Induction and treatment of experimental SLE. In order to induce experimental SLE, BALB/c mice were immunized with 1-2 μg of the human mAb 16/6Id and boosted 3 weeks later. For the prevention of experimental SLE, mice were given hCDR1 or hCDR3 (mCDR1 or revmCDR1 as control peptide in Example 12) intravenously (i.v.) or s.c. concomitant with the immunization, and were injected weekly thereafter for 5 weeks. Treatment of an established disease started three and a half months following disease induction with the 16/6Id, when clinical manifestations were already observed. In Example 12, mice received 10 weekly injections (i.v. or s.c.) of mCDR1 or revmCDR1 at a dose of 100 μg/mouse. Prevention and treatment of SLE-like disease in (NZB×NZW)F1 mice with the hCDR1 or mCDR1 peptide. For prevention of SLE, mice at the age of 2 months, before disease manifestations are observed, were injected s.c. with hCDR1 (or mCDR1 in Example 12, 250 μg/mouse) once a week for 10 weeks. To treat an established disease, mice at the age of 5-7 months were injected with hCDR1 (in Example 12, mCDR1 s.c., 250 μg/mouse) once a week for 10 weeks. Proliferative Responses. PBL were isolated from heparinized venous blood by Ficoll-Hypaque (Pharmacia) density-gradient centrifugation. […] Results are expressed as the mean thymidine incorporation in counts per minute (CPM) of triplicate culture±SD, or as stimulation index (S.I.; the ratio of mean CPM at the optimal concentration of the human 16/6Id to the mean CPM in the presence of medium alone). […] TGF-β was determined by an ELISA. […] The substrate solution used was TMB color Reagent (Helix Diagnostics, West Sacramento, Calif.), and enzyme activity was evaluated by using 570- and 630-nm filters. […] Proteinuria was measured semiquantitatively by using Combistix kit (Ames Division, Bayer Diagnostics, Newbury, U.K.). White blood cells (WBC, for leukopenia) were counted after a 10-fold dilution of heparinized blood in distilled water containing 1% acetic acid (vol/vol). […]

BALB/c-derived LNCs = test: In vivo inhibition of proliferation of LNC of BALB/c mice immunized with mCDR1; conditions: maximum % inhibition; 200 μg s.c. in PBS concomitant with immunization; LNC tested ten days later
Protocol: (§1) To this end, BALB/c and SJL mice were immunized with mCDR1 and mCDR3, respectively. The immunizing murine peptides were injected (10 μg/mouse) in CFA intradermally in the hind footpads. Concomitant with the immunization, groups of BALB/c mice were injected subcutaneously (s.c.) with 200 μg in PBS of hCDR1 and groups of SJL mice were similarly injected with hCDR3. Ten days after the immunization, mice were sacrificed and their lymph nodes were harvested and the cells were tested for their ability to proliferate following triggering with the immunizing peptides. Briefly, LNCs of immunized mice (0.5×10^6/well) were cultured (in triplicates) in the presence of different concentrations (1-20 μg/well) of the murine immunizing peptides in enriched RPMI-1640 medium supplemented with 1% normal mouse serum. Following four days of incubation, ^3H-thymidine was added for additional 16 hours. Cells were then harvested and radioactivity was counted using a β-counter.
(§2) The inhibition was calculated based on the proliferation of LNCs of mice that were not treated with the inhibitory peptides hCDR1 and hCDR3. It can be seen that hCDR1 and hCDR3 were capable of inhibiting the proliferative responses to the immunizing murine CDR peptides.

[1] = tested on: lymph node cultures of BALB/c mice; test: Cytokines in supernatants of 16/6Id-stimulated lymph node cultures of BALB/c mice with experimental SLE; type: in vivo; conditions: after 10 treatment injections
Protocol: Induction and treatment of experimental SLE. In order to induce experimental SLE, BALB/c mice were immunized with 1-2 μg of the human mAb 16/6Id and boosted 3 weeks later. For the prevention of experimental SLE, mice were given hCDR1 or hCDR3 (mCDR1 or revmCDR1 as control peptide in Example 12) intravenously (i.v.) or s.c. concomitant with the immunization, and were injected weekly thereafter for 5 weeks. Treatment of an established disease started three and a half months following disease induction with the 16/6Id, when clinical manifestations were already observed. In Example 12, mice received 10 weekly injections (i.v. or s.c.) of mCDR1 or revmCDR1 at a dose of 100 μg/mouse. Prevention and treatment of SLE-like disease in (NZB×NZW)F1 mice with the hCDR1 or mCDR1 peptide. For prevention of SLE, mice at the age of 2 months, before disease manifestations are observed, were injected s.c. with hCDR1 (or mCDR1 in Example 12, 250 μg/mouse) once a week for 10 weeks. To treat an established disease, mice at the age of 5-7 months were injected with hCDR1 (in Example 12, mCDR1 s.c., 250 μg/mouse) once a week for 10 weeks. Proliferative Responses. PBL were isolated from heparinized venous blood by Ficoll-Hypaque (Pharmacia) density-gradient centrifugation. All assays were performed, in triplicate, in flat-bottomed microtiter plates (Falcon, Becton Dickinson, Oxmard, Calif., USA) in which 2×10^5 PBL were cultured in enriched RPMI-1640 as described (Dayan et al., 2000). The PBL were exposed to various concentrations (0.1-40 μg/well) of the human anti-DNA 16/6Id mAb with and without the addition of the various CDR-based peptides at a concentration of at least 10-fold excess over that of the 16/6Id. Phytohemagglutinin (PHA; 2 μg/well) was used as a control for culture conditions at each experiment. The cultures were incubated in 7.5% CO2 at 37° C. for 6 days. Eighteen hours before the cells were harvested, [^3H]-thymidine (0.5μ Ci of 5 Ci/mmol) (Nuclear Research Center, Negev, Israel) was added to all cultures. Results are expressed as the mean thymidine incorporation in counts per minute (CPM) of triplicate culture±SD, or as stimulation index (S.I.; the ratio of mean CPM at the optimal concentration of the human 16/6Id to the mean CPM in the presence of medium alone). […] TGF-β was determined by an ELISA. […] The substrate solution used was TMB color Reagent (Helix Diagnostics, West Sacramento, Calif.), and enzyme activity was evaluated by using 570- and 630-nm filters. […] Proteinuria was measured semiquantitatively by using Combistix kit (Ames Division, Bayer Diagnostics, Newbury, U.K.). White blood cells (WBC, for leukopenia) were counted after a 10-fold dilution of heparinized blood in distilled water containing 1% acetic acid (vol/vol). […]

(NZB×NZW)F1 mice = test: Transfer of splenocytes of peptide-treated mice into (NZB×NZW)F1 mice with full-blown disease; type: in vivo
Description: It was of importance to investigate whether the beneficial effects of treatment with hCDR1, that are manifested by the down-regulation of disease manifestations, can be transferred by spleen cells of treated mice. To this end, we have performed an experiment in which 8-month old (NZB×NZW)F1 mice, that suffer already from the full-blown lupus-like disease, were divided into 2 groups. Group 1 was not treated and mice of group 2 were transferred with 20×10^6 spleen cells of 3-month old (NZB×NZW)F1 mice that were injected 3 times (s.c., every other day) with 300 μg/mouse of hCDR1. All splenocytes were injected intraperitoneally. Mice were tested for anti-dsDNA autoantibody production, disease manifestations, and were sacrificed 4 weeks after cell transfer.
The experiment was repeated a few more times using revhCDR1 as control.

SJL-derived LNCs = test: In vivo inhibition of proliferation of LNC of SJL mice immunized with mCDR3; conditions: maximum % inhibition; 200 μg s.c. in PBS concomitant with immunization; LNC tested ten days later
Protocol: as §1, §2

| Sequence | levels of MMP-3 in pooled sera (MMP-3) | % Inhibition of the proliferation of BALB/c-derived LNCs to mCDR1 (BALB/c-derived LNCs) | levels of TGF-β ([1]; FIG. 15D, 15E (spleen cells)) | INF-γ in supernatants of 16/6Id stimulated lymph node cultures ([1]; both doses (200 and 300 μg), FIG. 15A) | TNF-α in supernatants of 16/6Id stimulated lymph node cultures ([1]; both doses (200 and 300 μg), FIG. 15B) | IL-10 in supernatants of 16/6Id stimulated lymph node cultures ([1]; both doses (200 and 300 μg), FIG. 15C) | Proteinuria g/L ± SEM ((NZB×NZW)F1 mice; Table 13, recipients of 20 × 10^6 spleen cells from mice treated 3 times s.c. with 300 μg/mouse, non-treated 15.07 ± 4.92) | I.C.D ± SEM ((NZB×NZW)F1 mice; Table 13, recipients of 20 × 10^6 spleen cells from treated mice, non-treated 2.25 ± 0.47) | I.C.D ± SEM ((NZB×NZW)F1 mice; Table 14 (repeat experiment), recipients of 20 × 10^6 spleen cells from treated mice, non-treated 2.3 ± 0.26) | Proteinuria g/L ± SEM ((NZB×NZW)F1 mice; Table 14 (repeat experiment), recipients of 20 × 10^6 spleen cells from treated mice, non-treated 10.9 ± 3.05) | levels of anti-DNA antibodies ((NZB×NZW)F1 mice; transfer of cells of treated mice, 4 weeks after cell transfer) | % Inhibition of the proliferation of SJL-derived LNCs to mCDR3 (SJL-derived LNCs) |
| --- | --- | --- | --- | --- | --- | --- | --- | --- | --- | --- | --- | --- |
| GYYWSWIRQPPGKGEEWIG (Human) [hCDR1, 19-mer peptide based on the CDR1 of the heavy chain of the human 16/6Id mAb] | down regulated | 55% | up-regulated | down regulated | down regulated | down regulated | 0.97 ± 0.67 g/L | 0.75 ± 0.47 | 1.33 ± 0.35 | 2.91 ± 1.6 g/L | mild reduction | – |
| YYCARGLLRGGWNDVDYYGMDV (Human) [hCDR3, peptide based on the CDR3 of the heavy chain of the human 16/6Id mAb] | – | – | – | – | – | – | – | – | – | – | – | 55% |
